# Reference: patent publication US9011863B2, “Combinations of kinase inhibitors for the treatment of cancer” (Exelixis, Inc., priority 2010, dated 2015)
# Read-outs that look alike come from different tables or passages of the source.
# Key:
# [1] = tested on: pAKT, pS6, HER3, pHER3, HER2 in human breast cancer cell lines; assay: immunoblotting of PI3K/AKT pathway markers; format: cell-based
# Experimental: Immunoprecipitation, immunoblotting, and RTK assays were performed according to published methods. Primary antibodies included AKT, pAKT^S473, pAKT^T308, ERK, pERK^T202/Y204, pHER2^Y1248, pHER3^Y1197, pHER3^Y1222, pHER3^Y1289, S6, pS6^S240/244, p27, pRb^S780, FoxO1, FoxO3a, MEK1/2 (Cell Signaling Technology, Danvers, Mass., USA), p85, 4G10 pTyr (Millipore, Billerica, Mass., USA), HER3, CyclinD1, RhoA, HDAC3 (Santa Cruz Biotechnology, Santa Cruz, Calif., USA), PARP (BD Transduction Laboratories), β-actin (Sigma, St. Louis, Mo., USA), and HER2 (Neomarkers, division of Thermo Scientific, Freemenot, Calif., USA). Species-specific horseradish peroxidase-conjugated secondary antibodies were from Promega (Madison Wis., USA). Immunoreactive signals were detected by enhanced chemilluminsecence (Pierce, Rockford, Ill., USA). Phospho-RTK arrays were from R&D Systems (Minneapolis, Minn., USA) total cell lysates were used to hybridize with the arrays according to the manufacturer's instructions.
# A panel of breast cancer cell lines with dysregulated PI3K activity was treated with increasing doses of compound A under two- and three-dimensional (2D and 3D) growth conditions. All experiments were conducted in 2.5% FBS-containing media, unless otherwise stated. […] This was further confirmed by immunoblot analysis of biomarkers of cell death and G1-S cell cycle transition in lysates from cells treated for 24 hours with compound A as shown in FIG. 10B.
# Experiments were performed to examine the effect of compound A on a more comprehensive panel of molecules in the PI3K and TOR signaling pathways.
# Although pHER3 is known to activate the extracellular signal regulated kinase (ERK/MAPK) via its interaction through the adaptor protein Shc, recovery of pERK upon feedback reactivation of HER3 was not detected consistently as shown in FIG. 13A.
# [2] = Experimental: The lung cancer cell line A549 was selected for this study. […] Lung A549 cells were implanted s.c. in female Swiss nude mice using standard techniques. […] Control groups were left untreated. […]
# For the evaluation of anti-tumor activity of conjugates, animals were weighed daily and tumors were measured twice weekly by caliper. A dosage producing a 20% weight loss at nadir (mean of group) or a 15% weight loss (mean of group) three successive times or drug deaths, was considered an excessively toxic dosage. Animal body weights included the tumor weights. Tumor weights were calculated using the formula mass (mg)=[length (mm)×width (mm)2]/2. The primary efficacy end points are ΔT/ΔT, percent median regression, partial and complete regressions (PR and CR), and Tumor free survivors (TFS). Changes in tumor volume for each treated (T) and control (C) were calculated for each tumor by subtracting the tumor volume on the day of first treatment (staging day) from the tumor volume on the specified observation day. The median ΔT was calculated for the treated group, and the median ΔT was calculated for the control group. Then the ratio ΔT/ΔT was calculated and expressed as a percentage: ΔT/ΔT=(delta T/delta C)×100. A dose is considered therapeutically active when ΔT/ΔT is lower than 40% and very active when ΔT/ΔT is lower than 10%. […] Percent tumor regression is defined as the percent of tumor volume decrease in the treated group at a specified observation day compared to its volume on the first day of first treatment. At a specific time point and for each animal, percent regression is calculated. The median percent regression is then calculated for the group. % regression (at t)=[volumet0−volumet/volument0]×100. Partial regression (PR): Regressions are defined as partial if the tumor volume decreases to 50% of the tumor volume at the start of treatment. Complete regression (CR): Complete regression is achieved when tumor volume=0 mm^3 (CR is considered when tumor volume cannot be recorded). TFS: Tumor free is defined as the animals with undetectable tumors at the end of the study (>100 days post last treatment).
# [3] = concentrations below 20 μM, 24 hours
# [4] = Compound A PO 5 (160) mg/kg Q1Dx32
# [5] = Compound A PO 100 (3200) mg/kg Q1Dx32
structure (smiles),measurement,setting,value
COc1ccc(Cl)c(Nc2nc3ccccc3nc2NS(=O)(=O)c2cccc(NC(=O)C(C)(C)N)c2)c1 [Compound A],cell lines with upregulation of total HER3 and/or pHER3^Y1289 levels,[1]; 24 hours,6/7
same,time to recovery of pAKT and pS6 levels,"[1]; BT474, 6 μM",≤ 6 hours
same,"total HER3, pHER3, pAKT time course","[1]; BT474, 6 μM, 0-72 hours","time-dependent upregulation of total HER3, HER3 phosphorylated at Y1197 and Y1289"
same,HER3 RNA and protein time course,"[1]; BT-474 cells, 6 uM, inhibitor added every 24 hours","time-dependent upregulation of HER3 RNA and protein, beginning at 6 hours and increasing through 72 hours"
same,catalytic activity or autophosphorylation of HER2,[1]; HER2-overexpressing cells,does not affect the catalytic activity or autophosphorylation of HER2
same,P-Erk,"[1]; SKBR-3 and MDA-453 cells, like in BT-474",P-Erk is upregulated
same,pAKT^S473/T308 and pS6^S240/244,"[1]; all cell lines, 0-20 μM",dose-dependent reduction in pAKT^S473/T308 and pS6^S240/244
same,PI3K signaling as measured by pAKT^S473,"[1]; all cell lines, 24 hours, 0-20 μM",dose-dependent inhibition of PI3K signaling
same,"cyclin D1, pRB, p27^KIP1",[1]; [3],reduction in cyclin D1 and pRB and an increase in levels of the CDK inhibitor p27^KIP1
same,total or cleaved PARP,[1]; [3],no change in levels of total or cleaved PARP
same,HER2-overexpressing cell lines with modest upregulation of total HER2 and/or pHER2^Y1248,[1]; upon inhibition of PI3K,5/6
same,Average body weight change in % per mouse at nadir,[2]; [4],−7.34%
same,Drug death (Day of death),[2]; [4],0/7
same,day of nadir,[2]; [4],65 days
same,Average body weight change in % per mouse at nadir,[2]; [5],−10.25%
same,Drug death (Day of death),[2]; [5],0/7
same,day of nadir,[2]; [5],65 days
same,Average body weight change in % per mouse at nadir,"[2]; Compound A PO 100 (3200) mg/kg Q1Dx32, listed as compound A",−10.3%
same,body weight loss at nadir,[2]; compound A at 30 mg/kg PO daily,−7.3%
